Data reported in patent publication US6762174B1 (priority 1998, dated 2004).
Read-outs that look alike come from different tables or passages of the source.

Tests used:
[1] = tested on: B16 melanoma; format: in vivo, female BDF1 mice; conditions: for Statistically Significant Effect on Reducing Tumor Volume: cp alone
[2] = tested on: MT-1 breast cancer xenograft; conditions: for Died of toxic effects: 8 mice

O=P1(N(CCCl)CCCl)NCCCO1 (centres unmarked) [cp, cyclophosphamide]
Percent of Animals with Greater than 10 Metastases ([1]; Cp 200 mg/kg): 50%
animals with 0-10 Metastases on Day 42 ([1]; Cp 200 mg/kg): 4
animals with 11-20 Metastases on Day 42 ([1]; Cp 200 mg/kg): 3
animals with 21-30 Metastases on Day 42 ([1]; Cp 200 mg/kg): 0
animals with over 30 Metastases (full of metastases) on Day 42 ([1]; Cp 200 mg/kg): 1
Primary Tumor Size (Median RTV) ([1]; cp 200 mg/kg alone, day 0): 1
Primary Tumor Size (Median RTV) ([1]; cp 200 mg/kg alone, day 4): 1.0
Primary Tumor Size (Median RTV) ([1]; cp 200 mg/kg alone, day 7): 2.4
Primary Tumor Size (Median RTV) ([1]; cp 200 mg/kg alone, day 10): 3.5
Primary Tumor Size (Median RTV) ([1]; cp 200 mg/kg alone, day 14): 12.9
Primary Tumor Size (Median RTV) ([1]; cp 200 mg/kg alone, day 17): 32.6
T/C ratio for medium tumor volume ([1]; cp 200 mg/kg alone, day 17): 82.3%
Statistically Significant Effect on Reducing Tumor Volume ([1]; DAY 7): No
Statistically Significant Effect on Reducing Tumor Volume ([1]; DAY 10): Yes
Statistically Significant Effect on Reducing Tumor Volume ([1]; DAY 14): Yes
Statistically Significant Effect on Reducing Tumor Volume ([1]; DAY 17): No
Median Relative Tumor Volume ([2]; 100 mg/kg cp, day 42): 1
Median Relative Tumor Volume ([2]; 100 mg/kg cp, day 46): 1.37
Median Relative Tumor Volume ([2]; 100 mg/kg cp, day 49): 1.54
Median Relative Tumor Volume ([2]; 100 mg/kg cp, day 53): 1.50
Median Relative Tumor Volume ([2]; 100 mg/kg cp, day 59): 1.85
Median Relative Tumor Volume ([2]; 200 mg/kg cp, day 42): 1
Median Relative Tumor Volume ([2]; 200 mg/kg cp, day 46): 1.15
Median Relative Tumor Volume ([2]; 200 mg/kg cp, day 49): 1.11
Median Relative Tumor Volume ([2]; 200 mg/kg cp, day 53): 1.21
Median Relative Tumor Volume ([2]; 200 mg/kg cp, day 59): 1.15
Median Relative Tumor Volume ([2]; 300 mg/kg cp, day 42): 1
Median Relative Tumor Volume ([2]; 300 mg/kg cp, day 46): 1.34
Median Relative Tumor Volume ([2]; 300 mg/kg cp, day 49): 1.14
Median Relative Tumor Volume ([2]; 300 mg/kg cp, day 53): 1.15
Median Relative Tumor Volume ([2]; 300 mg/kg cp, day 59): 1.14
T/C RTV d 49 ([2]; Cp 100 mg/kg): 87%
T/C RTV d 59 ([2]; Cp 100 mg/kg): 81%
WBC d 46 ([2]; Cp 100 mg/kg): 10.3 10^6/mL
T/C RTV d 49 ([2]; Cp 200 mg/kg): 63%
T/C RTV d 59 ([2]; Cp 200 mg/kg): 50%
WBC d 46 ([2]; Cp 200 mg/kg): 5.5 10^6/mL
Last 2 readings indicate progression ([2]; Cp 300 mg/kg): 12%
Last 2 readings indicate regression ([2]; Cp 300 mg/kg): 12%
Last 2 readings stayed the same ([2]; Cp 300 mg/kg): 0%
Last reading indicates progression ([2]; Cp 300 mg/kg): 25%
Last reading indicates regression ([2]; Cp 300 mg/kg): 25%
T/C RTV d 49 ([2]; Cp 300 mg/kg): 65%
T/C RTV d 59 ([2]; Cp 300 mg/kg): 50%
WBC d 46 ([2]; Cp 300 mg/kg): 5.6 10^6/mL
Died of toxic effects ([2]; Cp 300 mg/kg): 25%
Died of toxic effects ([2]; Cp 300 mg/kg, listed as Cp): 25%
